Data as given in patent publication US20220195059A1, “Rank Pathway Inhibitors in Combination with CDK Inhibitors” (INSTITUTO DE MEDICINA MOLECULAR JOÃO LOBO ANTUNES, priority 2019, published 2022).

Assays:
[1] = system: RANK OE cells (MCF-7^OE, T47D^OE) and parental MCF-7, T47D cells; assay: Alamar blue viability assay, RANK OE luminal breast cancer cells vs parental counterparts; assay type: cell-based, human; conditions: RANK OE cells vs parental counterparts; drug alone; 7 days
Experimental: Cells were seeded in 96 well-plates (2-5×10^4 cells/mL), with or without paclitaxel (Y0000698, Sigma), doxorubicin hydrochloride (D2975000, Sigma), palbociclib (PD 0332991 isethionate, PZ0199, Sigma), ribociclib (LEE011 succinate, SC-488174, Santa Cruz), abemaciclib mesylate (LY2835219, S7158, Selleckchem), fulvestrant (S1191, Selleckchem), everolimus (#73122, StemCell Technologies), full length human OPG (SRP3132, Sigma), and OPG-Fc (Amgen). Medium was replaced every 2 days. After 7 days, 1:10 Alamar blue (Invitrogen) was added to each well and fluorescence was measured 2 hours after incubation (excitation 560 nm; emission 590 nm) in an Infinite M200 microplate reader (Tecan).
In particular, RANK OE cells were tested for responsiveness to hormone therapy. Briefly, RANK OE cells were seeded in multi-well plates and exposed to fulvestrant for 7 days.
In this assay, however, RANK OE cells were exposed to a CDK 4/6 inhibitor alone or in combination with an inhibitor of the RANK pathway, in order to test the effect of blocking the RANK pathway in this context. Briefly, RANK OE cells were seeded in multi-well plates and exposed to palbociclib, ribociclib or abemaciclib alone or in combination with OPG-Fc for 7 days. Osteoprotegrin (OPG) is the physiologic soluble decoy receptor for RANK ligand (RANKL), and OPG-Fc is a fusion protein comprising only the four cysteine-rich domains of OPG (D1 to D4) fused with the Fc domain of an IgG1 antibody.
In this study, the CDK4/6 inhibitors palbociclib and ribociclib were exposed to RANK OE cells in combination with fulvestrant or everolimus. This combination therapy was then tested alone or in combination with OPG, an inhibitor of the RANK pathway. In this assay, the full-length OPG protein was used, in contrast to the previous example utilizing OPG-Fc.
To address this question, cell growth in the presence or absence of a CDK4 inhibitor was quantified. Briefly, cells were seeded in 96-well plates and exposed to two different drugs, CDK4 inhibitors, 3-ATA (FIG. 20A) or Cdk4 inhibitor Ill (FIG. 20B) for seven days. Medium was replaced every two days, and viability was assessed by Alamar blue assay. FIG. 20A provides the cell growth quantification in the presence of the CDK4 inhibitor 3-ATA and FIG. 20B provides the cell growth quantification in the presence of another CDK4 inhibitor, Cdk4 Inhibitor Ill. The results are the mean of at least three independent assays, with 4 replicates per assay, and presented as the mean±SEM. p-value was calculated using 2-way ANOVA, *p<0.05, **p<0.01, ***p<0.001.
To answer this question, cell growth in the presence of the pan-CDK inhibitor seliciclib (also known as roscovitine or CYC202) was analyzed. Briefly, cells were seeded in 96-well plates and exposed to different drugs for seven days. Medium was replaced every two days, and viability was assessed by Alamar blue assay.
Cells were seeded in 96 well-plates (2-5×10^4 cells/mL), with or without palbociclib (PD 0332991 isethionate, PZ0199, Sigma), ribociclib (LEE011 succinate, SC-488174, Santa Cruz), abemaciclib mesylate (LY2835219, S7158, Selleckchem), 3-ATA (sc-202414, Santa Cruz), Cdk4 inhibitor Ill (sc-202988, Santa Cruz), seliciclib (S1153, Selleckchem), and OPG-Fc (PL-33324, Amgen). Medium was replaced every 2 days. After 7 days, 1:10 Alamar blue (Invitrogen) was added to each well and fluorescence was measured 2 hours after incubation (excitation 560 nm; emission 590 nm) in an Infinite M200 microplate reader (Tecan).

[2] = system: cyclin D1, CDK4, CDK6, Cyclin E and CDK2 expression in RANK OE (MCF-7 OE) cells; assay: Western blot of proteins involved in cyclin/CDKs complexes; assay type: cell-based, human; conditions: 0, 24 or 72 hours
Experimental: Membranes were blocked for 1 h at room temperature (RT) in 5% Non-Fat Dry Milk (NFDM) in PBS-0.1% Tween (PBST) for β-actin; or in 5% bovine serum albumin (BSA) (Santa Cruz) for other antibodies. […] Proteins were detected using a Novex® ECL HRP chemiluminescent substrate reagent kit (Invitrogen) according to the manufacturer's instructions, and x-ray films (Fujifilm) developed in a Curix 60 processor (AGFA), or the Amersham™ Imager 680 (GE Healthcare Life Sciences). Normalized protein expression was calculated using FIJI software and band densitometry analysis.
Briefly, expression of cyclin D1, CDK4, CDK6, Cyclin E and CDK2 were analyzed by Western blotting cell lysates of RANK OE (MDF-7 OE) cells exposed to palbociclib for 0 hours, 24 hours or 72 hours, and compared to the corresponding expression levels in the parental counterpart cells (expressing low levels of RANK; MCF-7 cells). […]

SMILES: CC(=O)c1c(C)c2cnc(Nc3ccc(N4CCNCC4)cn3)nc2n(C2CCCC2)c1=O [palbociclib]
- sensitivity of RANK OE cells to the drug (cell viability) [1]: decreased sensitivity
- CyclinD1, CDK4 and CDK2 expression upon exposure to CDK4/6 inhibitor [2]: increased
